These results are taken from ChEMBL document CHEMBL3351638, “Discovery of 6-[5-(4-fluorophenyl)-3-methyl-pyrazol-4-yl]-benzoxazin-3-one derivatives as novel selective nonsteroidal mineralocorticoid receptor antagonists” (Bioorg Med Chem, 2014).

For series [1], the target named is T1, Mineralocorticoid receptor (Homo sapiens, UniProt P08235).
T1 sequence (P08235 whole entry): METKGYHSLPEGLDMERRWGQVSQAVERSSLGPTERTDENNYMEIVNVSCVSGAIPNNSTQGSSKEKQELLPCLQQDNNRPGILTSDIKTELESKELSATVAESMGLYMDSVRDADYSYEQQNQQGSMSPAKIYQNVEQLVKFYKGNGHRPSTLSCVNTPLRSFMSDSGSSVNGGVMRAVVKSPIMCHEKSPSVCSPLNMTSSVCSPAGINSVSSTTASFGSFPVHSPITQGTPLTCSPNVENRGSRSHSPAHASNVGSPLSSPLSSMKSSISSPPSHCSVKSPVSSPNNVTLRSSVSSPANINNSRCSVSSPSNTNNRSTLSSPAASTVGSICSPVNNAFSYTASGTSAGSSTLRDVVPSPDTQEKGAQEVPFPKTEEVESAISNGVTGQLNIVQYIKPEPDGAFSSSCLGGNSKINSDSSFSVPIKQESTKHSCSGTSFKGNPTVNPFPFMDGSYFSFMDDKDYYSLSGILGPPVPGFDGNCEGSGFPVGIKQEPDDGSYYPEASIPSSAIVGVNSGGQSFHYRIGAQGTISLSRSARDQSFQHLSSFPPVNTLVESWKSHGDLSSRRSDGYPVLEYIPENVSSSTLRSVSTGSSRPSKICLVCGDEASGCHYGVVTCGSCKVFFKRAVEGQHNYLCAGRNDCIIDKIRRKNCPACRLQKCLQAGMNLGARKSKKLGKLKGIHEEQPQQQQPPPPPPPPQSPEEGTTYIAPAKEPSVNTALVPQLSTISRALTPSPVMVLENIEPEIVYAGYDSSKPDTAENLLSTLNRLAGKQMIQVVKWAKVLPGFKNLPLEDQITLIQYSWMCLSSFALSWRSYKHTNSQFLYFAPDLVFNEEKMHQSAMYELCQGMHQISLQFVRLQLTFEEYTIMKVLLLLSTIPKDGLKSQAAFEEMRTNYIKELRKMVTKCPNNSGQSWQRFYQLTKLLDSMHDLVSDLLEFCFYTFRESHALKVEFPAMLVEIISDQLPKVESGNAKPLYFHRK
Briefly: biochemical.
Description: Displacement of [3H]aldosterone from human mineralocorticoid receptor expressed in 293 cells after 16 hrs by scintillation counting

Series [2] in a line: Lipophilicity, log D of the compound at pH 7.4 by HPLC analysis. The following applies: buffer. Type of series: physicochemical.
The target of the next series is T2, Progesterone receptor (Homo sapiens, UniProt P06401).
T2 sequence (P06401 whole entry): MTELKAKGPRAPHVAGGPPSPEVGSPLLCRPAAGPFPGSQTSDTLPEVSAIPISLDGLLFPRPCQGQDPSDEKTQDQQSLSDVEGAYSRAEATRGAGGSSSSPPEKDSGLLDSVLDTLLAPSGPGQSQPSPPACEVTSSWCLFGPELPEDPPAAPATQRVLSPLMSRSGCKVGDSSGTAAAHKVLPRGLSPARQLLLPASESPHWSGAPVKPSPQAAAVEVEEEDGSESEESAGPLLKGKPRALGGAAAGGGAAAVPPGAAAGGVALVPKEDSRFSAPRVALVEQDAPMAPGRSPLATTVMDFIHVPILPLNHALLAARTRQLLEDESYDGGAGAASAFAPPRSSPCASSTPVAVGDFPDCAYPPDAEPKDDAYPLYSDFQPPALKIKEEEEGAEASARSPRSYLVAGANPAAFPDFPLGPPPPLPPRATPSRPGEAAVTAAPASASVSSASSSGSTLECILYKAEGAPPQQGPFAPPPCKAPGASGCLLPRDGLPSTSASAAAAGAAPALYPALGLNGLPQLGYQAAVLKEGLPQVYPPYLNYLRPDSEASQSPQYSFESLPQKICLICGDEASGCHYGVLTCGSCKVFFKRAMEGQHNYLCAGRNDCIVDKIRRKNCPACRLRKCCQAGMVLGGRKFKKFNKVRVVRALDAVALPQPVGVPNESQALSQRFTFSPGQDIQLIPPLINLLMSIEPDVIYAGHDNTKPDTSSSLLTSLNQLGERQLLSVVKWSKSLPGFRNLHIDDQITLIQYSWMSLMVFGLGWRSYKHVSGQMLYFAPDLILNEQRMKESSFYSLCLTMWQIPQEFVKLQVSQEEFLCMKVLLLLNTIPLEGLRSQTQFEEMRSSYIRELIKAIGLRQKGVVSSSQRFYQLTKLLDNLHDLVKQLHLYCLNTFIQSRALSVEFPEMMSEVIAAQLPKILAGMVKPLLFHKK
Briefly: Displacement of [[3H]-Progesterone from progesterone receptor (unknown origin) expressed in 293 cells after 16 hrs by scintillation counting. Type of series: cell-based.

In series [3] the target is T1, Mineralocorticoid receptor.
Description: Antagonist activity at human mineralocorticoid receptor expressed in COS1 cells after 1 day by luciferase reporter gene assay
A further series addresses T3, Androgen receptor (Homo sapiens, UniProt P10275).
T3 sequence (P10275 whole entry): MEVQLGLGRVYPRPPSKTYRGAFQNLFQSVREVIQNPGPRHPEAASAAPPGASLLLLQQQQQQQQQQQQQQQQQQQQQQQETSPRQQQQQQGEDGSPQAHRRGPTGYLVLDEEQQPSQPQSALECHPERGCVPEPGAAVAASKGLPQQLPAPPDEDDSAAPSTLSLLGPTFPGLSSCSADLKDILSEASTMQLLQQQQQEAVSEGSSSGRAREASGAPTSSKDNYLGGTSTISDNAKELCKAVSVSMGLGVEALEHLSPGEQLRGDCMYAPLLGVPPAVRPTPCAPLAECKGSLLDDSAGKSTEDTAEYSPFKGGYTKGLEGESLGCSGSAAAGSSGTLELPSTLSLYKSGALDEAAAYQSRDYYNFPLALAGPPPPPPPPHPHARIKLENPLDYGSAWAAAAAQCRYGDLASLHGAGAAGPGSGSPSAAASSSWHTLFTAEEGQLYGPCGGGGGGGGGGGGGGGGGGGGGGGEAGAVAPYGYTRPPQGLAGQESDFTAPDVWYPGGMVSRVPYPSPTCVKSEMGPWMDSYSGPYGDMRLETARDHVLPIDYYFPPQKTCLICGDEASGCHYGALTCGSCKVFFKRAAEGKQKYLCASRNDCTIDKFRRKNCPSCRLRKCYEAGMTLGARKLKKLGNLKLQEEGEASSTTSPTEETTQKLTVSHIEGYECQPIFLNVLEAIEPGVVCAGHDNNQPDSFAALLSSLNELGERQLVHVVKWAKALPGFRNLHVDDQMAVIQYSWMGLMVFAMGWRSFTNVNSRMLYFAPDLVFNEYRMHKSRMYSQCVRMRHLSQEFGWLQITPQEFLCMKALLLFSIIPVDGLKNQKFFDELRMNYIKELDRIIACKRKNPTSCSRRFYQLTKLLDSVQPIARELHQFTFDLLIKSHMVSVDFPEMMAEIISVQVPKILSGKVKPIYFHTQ
Briefly: biochemical.

In the next series the target is Glucocorticoid receptor (Homo sapiens, UniProt P04150). Description: biochemical.
Series [4] can be described thus: Metabolic stability in rat hepatic microsomes at 1 umol/L pre-incubated fro 5 mins at 37 degC before addition of NADPH-generating system by UV detection based HPLC method. Type of series: ADME. The note with it: liver microsomes, read-out: CLH. In general terms: Liver microsomes are a subcellular fraction often used to study metabolism.
Series [5] in a line: Clearance in Sprague-Dawley rat at 1 mg/kg, iv. The following applies: in vivo. Type of series: ADME, organism-based. Also on record: dose 1 mg/kg, route intravenous.
Series [6] has as its system Rattus norvegicus. Briefly: Toxicity in DOCA-salt hypertensive Wistar rat model assessed as change in heart rate at 100 mg/kg, po qd for 18 days measured 24 hrs post 7th and 14th last dose by tail-cuff method. Also on record: dose 100 mg/kg, route oral. Type of series: organism-based. The following applies: in vivo.
Series [7] can be described thus: AUC (0 to 24 hrs) in Sprague-Dawley rat at 3 mg/kg, po. Type of series: ADME, organism-based. Further details: time < 24 hr, dose 3 mg/kg, route oral. The note with it: plasma.
A short description of series [8]: Oral bioavailability in Sprague-Dawley rat at 3 mg/kg. Type of series: ADME, organism-based. The following applies: in vivo.
Series [9] can be described thus: Volume of distribution at steady state in Sprague-Dawley rat at 1 mg/kg, iv. Type of series: ADME, organism-based. Further details: dose 1 mg/kg, route intravenous. The following applies: in vivo, read-out: Vdss.
Series [10] relates to Rattus norvegicus. Description: Toxicity in DOCA-salt hypertensive Wistar rat model assessed as change in seminal vesicle weight at 100 mg/kg, po qd for 18 days measured 24 hrs post 7th and 14th last dose […]. Type of series: organism-based. Also on record: dose 100 mg/kg, route oral. The following applies: in vivo.
Series [11] in a line: Mean residence time in Sprague-Dawley rat at 3 mg/kg, po. Type of series: ADME, organism-based. Further details: dose 3 mg/kg, route oral. The following applies: in vivo.

Bounds are passed on as bounds.

Glucocorticoid receptor, sequence (P04150 whole entry, looked up): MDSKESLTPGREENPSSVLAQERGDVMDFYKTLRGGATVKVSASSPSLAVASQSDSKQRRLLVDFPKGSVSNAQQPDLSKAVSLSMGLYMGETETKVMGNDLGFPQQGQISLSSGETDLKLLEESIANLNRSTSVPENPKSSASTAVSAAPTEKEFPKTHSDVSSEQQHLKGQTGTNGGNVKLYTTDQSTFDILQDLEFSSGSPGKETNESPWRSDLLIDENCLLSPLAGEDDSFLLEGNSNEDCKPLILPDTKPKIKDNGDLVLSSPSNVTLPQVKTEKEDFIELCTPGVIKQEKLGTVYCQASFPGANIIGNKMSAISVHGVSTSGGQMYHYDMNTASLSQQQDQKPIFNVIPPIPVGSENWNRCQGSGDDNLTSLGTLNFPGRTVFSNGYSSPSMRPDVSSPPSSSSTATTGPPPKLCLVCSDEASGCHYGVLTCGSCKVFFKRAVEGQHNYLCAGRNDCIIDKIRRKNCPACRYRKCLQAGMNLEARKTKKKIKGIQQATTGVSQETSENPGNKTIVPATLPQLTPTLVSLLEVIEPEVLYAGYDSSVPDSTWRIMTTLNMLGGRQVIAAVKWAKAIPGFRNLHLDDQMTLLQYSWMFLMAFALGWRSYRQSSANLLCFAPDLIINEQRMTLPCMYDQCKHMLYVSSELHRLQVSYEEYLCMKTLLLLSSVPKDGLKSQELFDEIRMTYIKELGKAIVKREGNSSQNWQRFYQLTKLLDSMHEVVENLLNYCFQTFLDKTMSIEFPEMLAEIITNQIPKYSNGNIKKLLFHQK
Description for Androgen receptor: Displacement of [3H]testosterone from androgen receptor (unknown origin) expressed in 293 cells after 16 hrs by scintillation counting
Description for Glucocorticoid receptor: Displacement of [3H]-Dexamethasone from glucocorticoid receptor (unknown origin) expressed in 293 cells after 16 hrs by scintillation counting

Consider `Cc1nn(Cc2cccnc2)c(-c2ccc(F)cc2)c1-c1ccc2c(c1)NC(=O)CO2`, for which the IC50 in [1] was 36 nM; at Progesterone receptor, above 10000 nM; in series [3], 36 nM; against Androgen receptor, above 10000 nM; at Glucocorticoid receptor, 1700 nM. The logD in [2] was determined as 2.22. Besides, the microsomal CLint at 1 µM in [4] was above 200 µL/min/mg.

For `Cc1nn(CC(F)(F)CO)c(-c2ccc(F)cc2)c1-c1ccc2c(c1)NC(=O)CO2`, the IC50 in series [1] was 51 nM; at Progesterone receptor, above 10000 nM; in series [3], 71 nM; against Androgen receptor, above 10000 nM; at Glucocorticoid receptor, 2400 nM. This compound had a clearance in series [5] of 16.5 mL/min/kg. Besides, the Activity entry with Rattus norvegicus [6] and in the series on Rattus norvegicus [10] was “Non-toxic” each time. This compound had a logD in [2] of 2.05. In addition, the AUC(0-t) at 24 h in series [7] was determined as 662 ng·h/mL. The bioavailability in series [8] was 21.4%. Besides, the Vd in series [9] worked out at 1.36 L/kg. This compound came in with a mean residence time MRT in series [11] of 3.77 h. Moreover, the microsomal CLint at 1 µM in series [4] was above 42 µL/min/mg.

Turning to `Cc1nn(CC(F)(F)CCO)c(-c2ccc(F)cc2)c1-c1ccc2c(c1)NC(=O)CO2`, the IC50 was 38 nM in series [1]; above 10000 nM at Progesterone receptor; 540 nM in [3]; above 10000 nM on Androgen receptor; 1300 nM against Glucocorticoid receptor. The logD in series [2] was found to be 2.11.

`Cc1nn(CCC(F)(F)CO)c(-c2ccc(F)cc2)c1-c1ccc2c(c1)NC(=O)CO2`: the IC50 is 95 nM in [1]; above 10000 nM at Progesterone receptor; 180 nM in [3]; above 10000 nM against Androgen receptor; 2500 nM against Glucocorticoid receptor. The compound further gave a pH-dependent lipophilicity (logD) in series [2] of 2.34.

With `CC(=O)S[C@@H]1CC2=CC(=O)CC[C@]2(C)[C@H]2CC[C@@]3(C)[C@@H](CC[C@@]34CCC(=O)O4)[C@H]12` [SPIRONOLACTONE], the values for the Activity entry with Rattus norvegicus [6] and in the series on Rattus norvegicus [10] were “Non-toxic” and “Toxic”, respectively.

The IC50 is the concentration that inhibits the measured activity by half. A higher IC50 goes with lower potency. As a reminder, the logD is lipophilicity at a set pH, counting ionised and neutral species. Read a low logD as a more hydrophilic compound. In general, clearance refers to a measure of how efficiently the substance is removed, as volume per time. Higher therefore signals efficient removal. Broadly, the AUC(0-t) is the area under the concentration-time curve up to a stated or last time point. Low readings indicate low exposure, high ones high exposure. What is called bioavailability is dose-corrected exposure relative to a reference, in per cent. A lower bioavailability goes with little systemic uptake. One may read the MRT as the average time that molecules of a dose stay in the body.
